# Results reported in patent US20150374646A1, “TREATMENT OF CANCER AND OTHER CONDITIONS USING A TRANSCRIPTION FACTOR MODULATOR” (C & C BIOPHARMA, LLC, priority 2013, published 2015).
# Key:
# HL60 = assay: Leukemia cell growth inhibition, CellTiter-Glo (Example 1); format: cell-based, human
# Procedure: (§1) Various human leukemia cells were grown to the logarithmic growth phase and seeded into 24-well plates. […] Treated cells were further incubated for 72 hours and then were examined for cell proliferation. Cell proliferation was determined using the CellTiter-Glo Luminescence Cell Viability assay (Promega Corporation, Madison, Wis.) according to the manufacturer's protocol. The calculated inhibition rate was determined with the following formula: Inhibition rate (%)=(1−Luminescence of experimental group/Luminescence of control group)×100. IC50 is the calculated concentration of a compound needed to inhibit half of the maximum cell growth (equivalent to cell growth in control group) based on the corresponding dose-response curve under the described experimental conditions.
# BaF3 BCR-ABL = assay: as above; format: cell-based; conditions: Mouse cell line with BCR-ABL, 72 hours
# Procedure: as §1
# SR = assay: as above; format: cell-based; conditions: Homo sapiens, Lymphoma, 72 hours
# Procedure: as §1
# REH = assay: as above; format: cell-based, human; conditions: REH cells, 4 μM
# Procedure: as §1
# Nalm-6 cells = assay: Survival of BALB/c nude mice with Nalm-6 acute B cell lymphoblastic leukemia (Example 2); format: in vivo
# Procedure: BALB/c nu/nu nude mice were 4 to 5 weeks old with an average weight of 22.4±1.03 grams. The mice were raised under specific pathogen-free (SPF) conditions and had access to food and water freely. Cyclophosphamide at about 130 mg/kg per day was administrated with intraperitoneal (IP) injection for 2 days. Twenty-four hours later, a suspension of 3.5×10^6 or 5×10^6 Nalm-6 cells (0.2 mL) were injected through tail vein of each BALB/c nude mouse. Five days later, the mice were randomly divided into a YT30 treated group (n=5) and a solvent control group (n=5).
# Mice in the YT30 treated group were intraperitoneally injected with 200 μL of YT30 (50 mg/kg) once a day, for 5 days a week, and for 3 or 4 weeks. The mice in the solvent control group were intraperitoneally injected with the same volume of solvent (20% DMSO, 80% of 20% w/v (2-hydroxypropyl)-β-cyclodextrin in PBS), and were on the same treatment schedule as the YT30 treated group. The body weights of the mice were recorded prior to the start of the treatment and at least twice a week thereafter. The dosages were adjusted according to the body weight to conform to the 50 mg/kg/day treatment plan. Each mouse of every group was also monitored daily for any other symptoms of side effects including change in behavior, activity or posture, areas of redness and swelling, and food and water withdrawal. […] Dates of death were recorded.
# MV4-11 cells = assay: Subcutaneous MV4-11 leukemia tumor growth in NOD/SCID mice (Example 5); format: in vivo
# Procedure: Female Nonobese Diabetic/Severe Combined Immunodeficiency (NOD/SCID) mice that were 4-6 weeks old were used in the experiment. The mice were fed under specific pathogen free (SPF) conditions. Food and water were available to the mice at will. A suspension of 1×10^7 cells per mouse B-myelomonocytic leukemia MV4-11 cells (0.2 mL) in logarithmic phase were inoculated subcutaneously into the right back of the NOD/SCID nude mice.
# The general conditions of the mice and the growth of the transplanted tumor were monitored. […] The control group received an intraperitoneal (IP) injection of 0.2 mL of solvent (20% DMSO, 80% of 20% w/v (2-hydroxypropyl)-β-cyclodextrin made in PBS). […] The high dosage group received an intraperitoneal injection of 50 mg/kg/day of YT30 (0.2 mL in volume) suspended in solvent (20% DMSO, 80% of 20% w/v (2-hydroxypropyl)-β-cyclodextrin made in PBS), while the low dosage group received IP injection of 25 mg/kg/day YT30 (0.2 mL in volume). Frequency of the administration was once per day and the experiment lasted 27 days after treatment started.
# The body weights of the mice were recorded prior to the start of treatment and twice every week thereafter. Each mouse of every group was monitored daily for any other symptoms of side effects including change in behavior, activity or posture, areas of redness and swelling, and food and water withdrawal. Caliper measurements of the longest perpendicular tumor diameters were performed every 2 days to estimate the tumor volume; the following formula: 4π/3×(width/2)^2×(length/2) was used to calculate the three-dimensional volume of an ellipse. The tumor inhibition rate was calculated according to tumor volume: Tumor inhibition rate by size (%)=(Tumor volume of the control group−Tumor volume of the treated group)/Tumor volume of the control group×100. The mice were euthanized on the next day after the final injection and the subcutaneous tumor nodules were taken out intact and weighed. The tumor inhibition rate was calculated again according to tumor weight: Tumor inhibition rate by weight (%)=(Tumor weight of the control group−Tumor weight of the treated group)/Tumor weight of the control group×100).
smiles,measurement,setting,value
Nc1ccccc1NC(=O)CCCCCC(=O)Nc1cccc(Br)c1 [YT30],Growth inhibition (FIG. 1),"HL60; HL60 cells, 4 μM",significantly inhibit cell growth
same,IC50,"HL60; Homo sapiens, HL-60, HL60, AML (subtype APL), 72 hours",1.04 µM
same,IC50,BaF3 BCR-ABL,3.4 µM
same,IC50,SR,6.89 µM
same,Growth inhibition (FIG. 1),REH,significantly inhibit cell growth
same,Average life span after inoculation for IP 50 mg/KG group,"Nalm-6 cells; IP 50 mg/kg qd for 5 days/week, 3 weeks, 5 × 10^6 Nalm-6 cells, 50 mg/kg",48.8 ± 9.7 days
same,Mice that appeared to be cured,"Nalm-6 cells; IP 50 mg/kg, 4 weeks, 3.5 × 10^6 Nalm-6 cells, euthanized 341 days after treatment start",three out of five
same,"Average body weight (g, x ± s) End point",MV4-11 cells; 25 mg/kg I.P. × 27 days,21.33 ± 1.26 g
same,"Average body weight (g, x ± s) Initial",MV4-11 cells; 25 mg/kg I.P. × 27 days,21.61 ± 1.18 g
same,Body weight change (%),MV4-11 cells; 25 mg/kg I.P. × 27 days,−1.0%
same,Tumor growth Inhibition by weight (%),MV4-11 cells; 25 mg/kg I.P. × 27 days,38.8%
same,Tumor size (mm^3),MV4-11 cells; 25 mg/kg I.P. × 27 days,1072.31 ± 296.29 mm^3
same,"Tumor weight (g, x ± s)",MV4-11 cells; 25 mg/kg I.P. × 27 days,1.35 ± 0.47 g
same,Tumor growth Inhibition by size (%),MV4-11 cells; 25 mg/kg I.P. × 27 days (low dosage),51.0%
same,"Average body weight (g, x ± s) End point",MV4-11 cells; 50 mg/kg I.P. × 27 days,18.86 ± 1.38 g
same,"Average body weight (g, x ± s) Initial",MV4-11 cells; 50 mg/kg I.P. × 27 days,21.02 ± 0.97 g
same,Body weight change (%),MV4-11 cells; 50 mg/kg I.P. × 27 days,−6.8%
same,Tumor growth Inhibition by weight (%),MV4-11 cells; 50 mg/kg I.P. × 27 days,58.8%
same,Tumor size (mm^3),MV4-11 cells; 50 mg/kg I.P. × 27 days,774.63 ± 269.10 mm^3
same,"Tumor weight (g, x ± s)",MV4-11 cells; 50 mg/kg I.P. × 27 days,0.91 ± 0.27 g
same,Tumor growth Inhibition by size (%),MV4-11 cells; 50 mg/kg I.P. × 27 days (high dosage),64.6%
